Assay results: publication PMC9030254, “Target Hopping from Protein Kinases to PXR: Identification of Small-Molecule Protein Kinase Inhibitors as Selective Modulators of Pregnane X Receptor from TüKIC Library” (Cells, 2022)

How the values were obtained:
Test in all cases: Kinase profiling
Format in all cases: biochemical
CLK3 = target: T1, CLK3 (Homo sapiens, UniProt P49761)
T1 construct: purchased ProQinase (Freiburg, Germany)
Method: (§1) The analysis was performed by ProQinase (Freiburg, Germany).

RON = target: T2, RON (Homo sapiens, UniProt Q04912)
T2 construct: purchased ProQinase (Freiburg, Germany)
Method: as §1

EGFR = target: T3, EGFR (Homo sapiens, UniProt P00533)
T3 construct: purchased ProQinase (Freiburg, Germany)
T3 sequence (P00533 25-1210): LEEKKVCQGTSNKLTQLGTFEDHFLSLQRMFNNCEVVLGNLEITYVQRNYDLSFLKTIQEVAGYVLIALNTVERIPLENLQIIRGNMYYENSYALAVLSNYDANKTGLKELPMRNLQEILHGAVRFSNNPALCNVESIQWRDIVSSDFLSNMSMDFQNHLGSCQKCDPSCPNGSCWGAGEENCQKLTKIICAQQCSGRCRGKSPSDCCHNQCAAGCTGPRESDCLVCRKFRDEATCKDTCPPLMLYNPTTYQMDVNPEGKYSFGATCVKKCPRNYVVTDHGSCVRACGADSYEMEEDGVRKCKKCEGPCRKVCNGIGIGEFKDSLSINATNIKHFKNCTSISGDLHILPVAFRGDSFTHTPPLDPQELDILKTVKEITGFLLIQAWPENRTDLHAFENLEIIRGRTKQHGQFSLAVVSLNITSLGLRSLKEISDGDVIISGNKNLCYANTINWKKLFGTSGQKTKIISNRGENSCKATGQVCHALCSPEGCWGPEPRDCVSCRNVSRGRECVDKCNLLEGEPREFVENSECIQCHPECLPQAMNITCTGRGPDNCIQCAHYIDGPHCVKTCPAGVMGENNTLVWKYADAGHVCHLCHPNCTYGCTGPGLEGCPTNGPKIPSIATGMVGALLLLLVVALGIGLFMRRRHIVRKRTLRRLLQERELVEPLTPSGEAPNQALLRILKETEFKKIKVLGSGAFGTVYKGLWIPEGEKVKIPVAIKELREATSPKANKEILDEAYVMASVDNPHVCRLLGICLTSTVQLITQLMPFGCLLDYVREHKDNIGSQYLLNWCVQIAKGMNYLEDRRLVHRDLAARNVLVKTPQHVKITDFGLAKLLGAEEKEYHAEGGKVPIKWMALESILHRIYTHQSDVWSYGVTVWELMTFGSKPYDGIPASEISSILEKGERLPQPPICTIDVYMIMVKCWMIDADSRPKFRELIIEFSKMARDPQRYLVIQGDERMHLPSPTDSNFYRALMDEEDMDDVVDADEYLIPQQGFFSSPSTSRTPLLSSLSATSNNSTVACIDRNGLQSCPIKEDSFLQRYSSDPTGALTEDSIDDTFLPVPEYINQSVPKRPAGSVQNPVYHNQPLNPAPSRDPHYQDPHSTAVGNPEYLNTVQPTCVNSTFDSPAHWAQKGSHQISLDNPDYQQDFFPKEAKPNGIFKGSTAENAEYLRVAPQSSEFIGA
Method: as §1

ROCK1 = target: T4, ROCK1 (Homo sapiens, UniProt Q13464)
T4 construct: purchased ProQinase (Freiburg, Germany)
Method: as §1

YES = target: T5, YES (Homo sapiens, UniProt P07947)
T5 construct: purchased ProQinase (Freiburg, Germany)
Method: as §1

CAMKK1 = target: T6, CAMKK1 (Homo sapiens, UniProt Q8N5S9)
T6 construct: purchased ProQinase (Freiburg, Germany)
T6 sequence (Q8N5S9 whole entry): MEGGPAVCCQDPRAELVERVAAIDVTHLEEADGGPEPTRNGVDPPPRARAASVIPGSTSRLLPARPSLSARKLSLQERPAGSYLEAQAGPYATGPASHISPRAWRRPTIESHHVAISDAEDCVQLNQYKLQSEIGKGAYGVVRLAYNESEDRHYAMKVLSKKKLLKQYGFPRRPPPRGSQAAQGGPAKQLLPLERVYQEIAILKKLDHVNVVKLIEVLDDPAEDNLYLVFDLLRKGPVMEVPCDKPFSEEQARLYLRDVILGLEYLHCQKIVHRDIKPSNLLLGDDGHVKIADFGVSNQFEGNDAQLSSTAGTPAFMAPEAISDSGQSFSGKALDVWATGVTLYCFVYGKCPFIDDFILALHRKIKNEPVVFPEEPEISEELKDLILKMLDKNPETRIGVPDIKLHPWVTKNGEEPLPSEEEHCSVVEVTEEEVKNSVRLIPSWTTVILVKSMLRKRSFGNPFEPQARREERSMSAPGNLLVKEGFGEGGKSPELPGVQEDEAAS
Method: as §1

PDK1 = target: T7, PDK1 (Homo sapiens, UniProt O15530)
T7 construct: purchased ProQinase (Freiburg, Germany)
T7 sequence (O15530 1-556): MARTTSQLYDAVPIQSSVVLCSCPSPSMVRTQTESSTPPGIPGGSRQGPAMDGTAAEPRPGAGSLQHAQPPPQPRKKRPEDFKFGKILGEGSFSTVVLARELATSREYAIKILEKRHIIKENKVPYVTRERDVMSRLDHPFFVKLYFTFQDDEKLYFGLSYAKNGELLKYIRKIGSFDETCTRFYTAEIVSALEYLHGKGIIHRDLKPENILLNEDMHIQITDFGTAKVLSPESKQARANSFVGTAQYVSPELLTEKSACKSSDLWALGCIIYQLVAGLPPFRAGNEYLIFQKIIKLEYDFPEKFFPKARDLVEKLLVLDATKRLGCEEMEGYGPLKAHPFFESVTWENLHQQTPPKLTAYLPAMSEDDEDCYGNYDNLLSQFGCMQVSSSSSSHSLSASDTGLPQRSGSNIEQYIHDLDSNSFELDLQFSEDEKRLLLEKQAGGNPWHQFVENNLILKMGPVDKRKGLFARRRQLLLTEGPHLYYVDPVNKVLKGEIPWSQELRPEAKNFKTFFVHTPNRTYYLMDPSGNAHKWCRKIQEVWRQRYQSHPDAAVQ
Method: as §1

SGK1 = target: T8, SGK1 (Homo sapiens, UniProt O00141)
T8 construct: purchased ProQinase (Freiburg, Germany)
T8 sequence (O00141 1-431): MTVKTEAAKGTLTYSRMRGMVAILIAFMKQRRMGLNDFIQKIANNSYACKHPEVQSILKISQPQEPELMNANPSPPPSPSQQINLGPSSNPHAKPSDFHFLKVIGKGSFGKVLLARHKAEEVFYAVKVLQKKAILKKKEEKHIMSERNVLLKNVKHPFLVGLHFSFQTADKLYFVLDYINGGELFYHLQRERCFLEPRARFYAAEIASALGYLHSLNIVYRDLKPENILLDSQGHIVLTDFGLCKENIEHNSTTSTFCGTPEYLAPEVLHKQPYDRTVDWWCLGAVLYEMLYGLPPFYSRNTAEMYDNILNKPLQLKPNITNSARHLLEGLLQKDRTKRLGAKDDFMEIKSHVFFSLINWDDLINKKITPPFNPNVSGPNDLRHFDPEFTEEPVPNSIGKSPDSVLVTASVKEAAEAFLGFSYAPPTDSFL
Method: as §1

LRRK2 = target: T9, LRRK2 (Homo sapiens, UniProt Q5S007)
T9 construct: purchased ProQinase (Freiburg, Germany)
T9 sequence (Q5S007 whole entry): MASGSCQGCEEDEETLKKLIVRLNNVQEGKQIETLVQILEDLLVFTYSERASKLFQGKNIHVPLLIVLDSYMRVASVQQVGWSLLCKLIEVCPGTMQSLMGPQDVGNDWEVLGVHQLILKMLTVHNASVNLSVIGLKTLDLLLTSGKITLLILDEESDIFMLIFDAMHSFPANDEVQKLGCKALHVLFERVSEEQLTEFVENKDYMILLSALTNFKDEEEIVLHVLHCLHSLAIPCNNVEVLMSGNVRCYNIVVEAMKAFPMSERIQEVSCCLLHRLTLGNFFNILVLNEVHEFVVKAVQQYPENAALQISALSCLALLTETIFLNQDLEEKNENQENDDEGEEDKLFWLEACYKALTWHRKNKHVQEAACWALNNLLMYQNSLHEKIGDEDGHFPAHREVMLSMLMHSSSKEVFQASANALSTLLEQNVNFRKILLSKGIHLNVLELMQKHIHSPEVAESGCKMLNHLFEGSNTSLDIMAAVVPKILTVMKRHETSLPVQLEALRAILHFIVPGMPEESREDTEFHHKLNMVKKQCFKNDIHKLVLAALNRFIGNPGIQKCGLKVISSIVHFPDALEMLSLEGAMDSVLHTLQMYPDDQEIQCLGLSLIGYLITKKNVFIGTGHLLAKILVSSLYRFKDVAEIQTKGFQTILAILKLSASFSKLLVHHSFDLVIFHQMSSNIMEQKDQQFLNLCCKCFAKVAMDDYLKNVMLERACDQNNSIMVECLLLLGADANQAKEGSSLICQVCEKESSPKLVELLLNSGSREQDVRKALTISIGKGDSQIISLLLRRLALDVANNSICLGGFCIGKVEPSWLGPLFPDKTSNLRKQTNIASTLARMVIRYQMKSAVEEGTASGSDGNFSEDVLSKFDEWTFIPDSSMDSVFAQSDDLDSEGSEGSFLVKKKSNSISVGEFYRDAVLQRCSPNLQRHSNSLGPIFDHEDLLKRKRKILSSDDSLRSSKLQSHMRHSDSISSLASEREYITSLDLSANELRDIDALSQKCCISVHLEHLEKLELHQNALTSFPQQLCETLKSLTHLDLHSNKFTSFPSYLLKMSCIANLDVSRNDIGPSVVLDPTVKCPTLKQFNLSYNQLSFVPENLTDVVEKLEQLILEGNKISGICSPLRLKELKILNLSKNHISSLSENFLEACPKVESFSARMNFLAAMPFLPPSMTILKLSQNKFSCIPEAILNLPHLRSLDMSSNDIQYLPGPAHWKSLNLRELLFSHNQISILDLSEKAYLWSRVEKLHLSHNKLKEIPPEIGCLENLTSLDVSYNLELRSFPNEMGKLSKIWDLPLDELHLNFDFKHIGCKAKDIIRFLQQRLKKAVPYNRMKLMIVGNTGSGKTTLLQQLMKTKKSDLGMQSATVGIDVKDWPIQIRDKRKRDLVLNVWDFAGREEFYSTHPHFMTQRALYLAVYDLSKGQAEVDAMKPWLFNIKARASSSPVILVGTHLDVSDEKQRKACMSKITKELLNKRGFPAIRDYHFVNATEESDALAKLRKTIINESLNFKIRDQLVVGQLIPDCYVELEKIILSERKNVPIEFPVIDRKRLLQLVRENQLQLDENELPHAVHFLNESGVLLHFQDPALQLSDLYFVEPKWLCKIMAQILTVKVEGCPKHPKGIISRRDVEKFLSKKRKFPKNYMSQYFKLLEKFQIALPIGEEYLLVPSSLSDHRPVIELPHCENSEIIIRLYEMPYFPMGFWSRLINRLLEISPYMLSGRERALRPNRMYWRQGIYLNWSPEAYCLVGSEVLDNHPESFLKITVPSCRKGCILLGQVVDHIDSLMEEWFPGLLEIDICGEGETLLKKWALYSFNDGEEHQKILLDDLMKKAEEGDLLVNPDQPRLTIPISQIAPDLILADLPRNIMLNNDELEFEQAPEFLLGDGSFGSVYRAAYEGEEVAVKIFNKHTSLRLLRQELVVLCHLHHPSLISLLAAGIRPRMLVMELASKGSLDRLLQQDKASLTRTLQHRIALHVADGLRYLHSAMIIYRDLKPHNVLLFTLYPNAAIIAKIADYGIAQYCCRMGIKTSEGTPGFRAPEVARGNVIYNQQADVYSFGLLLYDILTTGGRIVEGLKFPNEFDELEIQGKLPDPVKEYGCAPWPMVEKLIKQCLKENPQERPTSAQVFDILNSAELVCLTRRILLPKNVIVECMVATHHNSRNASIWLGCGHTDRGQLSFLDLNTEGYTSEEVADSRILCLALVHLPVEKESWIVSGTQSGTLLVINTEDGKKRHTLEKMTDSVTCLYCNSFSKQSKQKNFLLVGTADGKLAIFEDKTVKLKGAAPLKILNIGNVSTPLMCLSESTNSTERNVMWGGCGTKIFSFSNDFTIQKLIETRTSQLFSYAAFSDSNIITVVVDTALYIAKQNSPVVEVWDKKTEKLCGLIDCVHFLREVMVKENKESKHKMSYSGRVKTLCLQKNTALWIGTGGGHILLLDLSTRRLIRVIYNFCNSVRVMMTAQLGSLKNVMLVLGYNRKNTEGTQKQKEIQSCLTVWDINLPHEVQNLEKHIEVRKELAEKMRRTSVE
Method: as §1

SAK = target: T10, SAK (Homo sapiens, UniProt O00444)
T10 construct: purchased ProQinase (Freiburg, Germany)
T10 sequence (O00444 1-970): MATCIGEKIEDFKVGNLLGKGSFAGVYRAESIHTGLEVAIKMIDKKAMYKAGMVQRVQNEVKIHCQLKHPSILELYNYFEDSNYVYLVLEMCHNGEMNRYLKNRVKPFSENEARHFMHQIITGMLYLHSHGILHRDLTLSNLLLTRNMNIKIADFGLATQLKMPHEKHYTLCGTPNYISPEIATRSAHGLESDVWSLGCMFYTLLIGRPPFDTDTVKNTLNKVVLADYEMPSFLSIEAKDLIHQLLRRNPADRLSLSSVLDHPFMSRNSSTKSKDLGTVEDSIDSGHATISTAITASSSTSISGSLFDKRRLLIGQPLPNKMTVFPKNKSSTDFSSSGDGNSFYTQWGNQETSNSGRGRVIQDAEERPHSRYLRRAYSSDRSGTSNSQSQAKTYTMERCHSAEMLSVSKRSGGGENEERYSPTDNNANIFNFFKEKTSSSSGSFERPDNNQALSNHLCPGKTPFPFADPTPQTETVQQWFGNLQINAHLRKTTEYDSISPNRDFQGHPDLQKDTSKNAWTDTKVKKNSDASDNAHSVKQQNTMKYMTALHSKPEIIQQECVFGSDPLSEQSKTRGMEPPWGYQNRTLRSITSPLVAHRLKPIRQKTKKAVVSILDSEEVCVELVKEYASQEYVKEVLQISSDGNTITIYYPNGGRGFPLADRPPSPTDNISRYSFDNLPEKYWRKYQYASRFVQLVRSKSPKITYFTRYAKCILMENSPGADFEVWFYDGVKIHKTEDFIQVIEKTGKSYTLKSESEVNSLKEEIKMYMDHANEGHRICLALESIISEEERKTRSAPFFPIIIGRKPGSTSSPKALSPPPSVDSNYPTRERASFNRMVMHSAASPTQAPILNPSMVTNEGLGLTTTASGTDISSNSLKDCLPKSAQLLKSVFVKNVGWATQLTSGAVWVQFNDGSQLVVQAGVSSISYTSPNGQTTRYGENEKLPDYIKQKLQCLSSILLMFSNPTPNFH
Method: as §1

T1 sequence (P49761 whole entry): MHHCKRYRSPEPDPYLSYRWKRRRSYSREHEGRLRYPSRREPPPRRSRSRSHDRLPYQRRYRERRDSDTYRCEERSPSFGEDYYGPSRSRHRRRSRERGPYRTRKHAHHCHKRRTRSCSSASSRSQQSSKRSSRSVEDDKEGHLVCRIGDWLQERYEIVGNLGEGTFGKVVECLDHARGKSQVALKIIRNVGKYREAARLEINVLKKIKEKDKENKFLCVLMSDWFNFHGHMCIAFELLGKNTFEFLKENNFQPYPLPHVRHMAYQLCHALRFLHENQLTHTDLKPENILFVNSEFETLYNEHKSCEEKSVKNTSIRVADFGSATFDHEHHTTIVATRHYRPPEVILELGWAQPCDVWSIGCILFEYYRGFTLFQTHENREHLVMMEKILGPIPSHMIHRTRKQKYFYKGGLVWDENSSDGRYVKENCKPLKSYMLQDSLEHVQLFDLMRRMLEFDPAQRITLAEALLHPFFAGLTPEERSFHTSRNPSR

SMILES | Residual activity (CLK3; 1.0E-05 M) | Residual activity (CLK3; 1.0E-06 M) | Residual activity (RON; 1.0E-05 M) | Residual activity (RON; 1.0E-06 M) | Residual activity (EGFR; 1.0E-05 M) | Residual activity (EGFR; 1.0E-06 M) | Residual activity (ROCK1; 1.0E-05 M) | Residual activity (ROCK1; 1.0E-06 M) | Residual activity (YES; 1.0E-05 M) | Residual activity (YES; 1.0E-06 M) | Residual activity (CAMKK1; 1.0E-05 M) | Residual activity (CAMKK1; 1.0E-06 M) | Residual activity (PDK1; 1.0E-05 M) | Residual activity (PDK1; 1.0E-06 M) | Residual activity (SGK1; 1.0E-05 M) | Residual activity (SGK1; 1.0E-06 M) | Residual activity (LRRK2; 1.0E-05 M) | Residual activity (LRRK2; 1.0E-06 M) | Residual activity (SAK; 1.0E-05 M) | Residual activity (SAK; 1.0E-06 M)
O=C(Cc1ccccc1)Nc1ccc(F)c(Nc2ccc3c(c2)CCCCC3=O)c1 [Compound 100] | 114 % of control | 130 % of control | 77 % of control | 104 % of control | 99 % of control | 100 % of control | 92 % of control | 99 % of control | 70 % of control | 87 % of control | 80 % of control | 78 % of control | 57 % of control | 102 % of control | 85 % of control | 108 % of control | 92 % of control | 89 % of control | 81 % of control | 92 % of control
O=C(Nc1ccc(F)c(Nc2ccc3c(c2)CCCCC3=O)c1)c1cccc(F)c1 [Compound 109] | 105 % of control | 110 % of control | 83 % of control | 89 % of control | 93 % of control | 105 % of control | 102 % of control | 99 % of control | 77 % of control | 98 % of control | 75 % of control | 77 % of control | 80 % of control | 98 % of control | 97 % of control | 99 % of control | 90 % of control | 94 % of control | 71 % of control | 89 % of control
